Results: patent US7662810B2, “2-arylmethylazetidine carbapenem derivatives and preparation thereof” (Korea Research Institute of Chemical Technology, priority 2004, dated 2010)

Tests used:
[1] = test system: Staphylococcus epidermidis 178; assay: Measurement of Minimum Inhibitory Concentration (MIC), QRS; assay type: cell-based; conditions: QRS, Staphylococcus epidermidis 178
Description: (§1) The antibacterial activities of the compounds of the present invention prepared in the above Examples against Gram-positive and Gram-negative bacteria, MRSA and QRS were tested as follows.
(§2) Respective bacterial strains were inoculated into 3 ml of Fleisch extract broth (beef extract 1%, peptone 1%, NaCl 0.3%, Na2HPO4.12H2O 0.2%, pH 7.4-7.5. 10% horse serum was supplemented for Streptococcus pyogenes and S. facium) and cultured on a shaking incubator at 37° C. for 18 hours. About 10^4 CFU/spot of the cultured bacterial strains were inoculated onto Müller-Hinton agar plates containing serial double dilutions (final concentration of 0.002 to 100 μg/ml) of a test compound employing an automatic inoculator (Dynatech, USA), and incubated at 37° C. for 18 hours. When the incubation was completed, the minimum inhibitory concentration was determined. Meropenem (Yuhan corporation, Korea) and vancomycin (Cj Inco., Korea) were used as standard antibiotics, respectively.

[2] = test system: Staphylococcus aureus 179; assay: as above; assay type: cell-based; conditions: QRS, Staphylococcus aureus 179
Description: as §1, §2

[3] = test system: Staphylococcus epidermidis 291; assay: as above; assay type: cell-based; conditions: QRS, Staphylococcus epidermidis 291
Description: as §1, §2

[4] = test system: Staphylococcus aureus 241; assay: as above; assay type: cell-based; conditions: QRS, Staphylococcus aureus 241
Description: as §1, §2

[5] = test system: Staphylococcus aureus 293; assay: as above; assay type: cell-based; conditions: QRS, Staphylococcus aureus 293
Description: as §1, §2

[6] = target: T1, Dihydropeptidase-1 (DHP-1) (Sus scrofa, UniProt P22412)
T1 sequence (P22412 17-384): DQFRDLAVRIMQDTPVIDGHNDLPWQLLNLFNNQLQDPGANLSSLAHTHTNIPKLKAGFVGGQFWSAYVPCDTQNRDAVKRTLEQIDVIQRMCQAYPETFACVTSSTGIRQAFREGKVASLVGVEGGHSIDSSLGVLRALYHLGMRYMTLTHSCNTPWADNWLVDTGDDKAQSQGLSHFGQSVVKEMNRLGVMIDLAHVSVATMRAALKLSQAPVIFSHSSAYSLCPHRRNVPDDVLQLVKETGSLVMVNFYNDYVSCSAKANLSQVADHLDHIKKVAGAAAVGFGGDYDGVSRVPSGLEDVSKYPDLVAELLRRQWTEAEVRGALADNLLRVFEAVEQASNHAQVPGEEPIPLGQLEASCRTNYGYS
Description: The rate of degradation of the inventive compounds by the action of DHP-1 enzyme extracted from hog kidney was determined as follow.
0.2 unit of the enzyme was allowed to react with the above solution at 30° C., and the absorbance at 299 nm of the remaining medicament was measured to determine the degradation rate. The absorbance was measured at 0, 0.5, 1, 2 and 4 hour points, and T1/2, the time when the concentration of the medicament become the half, was obtained by regression analysis.

[7] = test system: Enterobacter cloacae 1321 E; assay: Measurement of Minimum Inhibitory Concentration (MIC); assay type: cell-based
Description: as §1, §2

[8] = test system: Staphylococcus pyogenes 77A; assay: as above; assay type: cell-based; conditions: Staphylococcus pyogenes 77A
Description: as §1, §2

[9] = test system: Enterobacter cloacae P 99; assay: as above; assay type: cell-based
Description: as §1, §2

[10] = test system: Klebsiella aerogenes 1522 E; assay: as above; assay type: cell-based
Description: as §1, §2

Escherichia coli DC 0 = assay: as above; assay type: cell-based
Description: as §1, §2

[11] = test system: Staphylococcus aureus 285; assay: as above; assay type: cell-based
Description: as §1, §2

Escherichia coli 1507 E = assay: as above; assay type: cell-based
Description: as §1, §2

Escherichia coli DC 2 = assay: as above; assay type: cell-based
Description: as §1, §2

[12] = test system: Klebsiella oxytoca 1082 E; assay: as above; assay type: cell-based
Description: as §1, §2

[13] = test system: Staphylococcus pyogenes 308A; assay: as above; assay type: cell-based; conditions: Staphylococcus pyogenes 308A
Description: as §1, §2

Escherichia coli 078 = assay: as above; assay type: cell-based
Description: as §1, §2

[14] = test system: Staphylococcus faecium MD 8b; assay: as above; assay type: cell-based; conditions: Staphylococcus faecium MD 8b
Description: as §1, §2

[15] = test system: Staphylococcus aureus 503; assay: as above; assay type: cell-based
Description: as §1, §2

Escherichia coli TEM = assay: as above; assay type: cell-based; conditions: Escherichia coli TEM
Description: as §1, §2

[16] = test system: Salmonella typhimurium 179; assay: as above; assay type: cell-based; conditions: Salmonella typhimurium 179
Description: as §1, §2

[17] = test system: Staphylococcus aureus 208E; assay: Measurement of Minimum Inhibitory Concentration (MIC), MRSA; assay type: cell-based; conditions: Staphylococcus aureus 208E
Description: as §1, §2

[18] = test system: Staphylococcus aureus 695E; assay: as above; assay type: cell-based; conditions: Staphylococcus aureus 695E
Description: as §1, §2

[19] = test system: Staphylococcus aureus 256E; assay: as above; assay type: cell-based; conditions: Staphylococcus aureus 256E
Description: as §1, §2

[20] = test system: Staphylococcus aureus 697E; assay: as above; assay type: cell-based; conditions: Staphylococcus aureus 697E
Description: as §1, §2

[21] = test system: Staphylococcus aureus 693E; assay: as above; assay type: cell-based; conditions: Staphylococcus aureus 693E
Description: as §1, §2

[22] = test system: Staphylococcus aureus 88E; assay: as above; assay type: cell-based; conditions: Staphylococcus aureus 88E
Description: as §1, §2

[23] = test system: Staphylococcus aureus 690E; assay: as above; assay type: cell-based; conditions: Staphylococcus aureus 690E
Description: as §1, §2

[24] = test system: Staphylococcus aureus 692E; assay: as above; assay type: cell-based; conditions: Staphylococcus aureus 692E
Description: as §1, §2

[25] = test system: Staphylococcus aureus 121E; assay: as above; assay type: cell-based; conditions: Staphylococcus aureus 121E
Description: as §1, §2

[26] = test system: Staphylococcus aureus 694E; assay: as above; assay type: cell-based; conditions: Staphylococcus aureus 694E
Description: as §1, §2

Row | SMILES | MIC [1] | MIC [2] | MIC [3] | MIC [4] | MIC [5] | T1/2 (time when the concentration of the medicament become the half) [6] | MIC [7] | MIC [8] | MIC [9] | MIC [10] | MIC (Escherichia coli DC 0) | MIC [11] | MIC (Escherichia coli 1507 E) | MIC (Escherichia coli DC 2) | MIC [12] | MIC [13] | MIC (Escherichia coli 078) | MIC [14] | MIC [15] | MIC (Escherichia coli TEM) | also measured
1 | C[C@@H](O)[C@H]1C(=O)N2C(C(=O)[O-])=C(SC3CN([C@@H](C)c4ccccc4)C3)[C@H](C)[C@H]12.[K+] [Exam. 22, Potassium(1R,5S,6S)-2-{1-[(1S)-1-phenylethyl]-azetidine-3-yl-thio}-6-[(R)-1-hydroxylethyl]-1-methylcarbapen-2-em-3-carboxylate] | 0.195 µg/mL | 0.049 µg/mL | 0.391 µg/mL | 0.049 µg/mL | 0.195 µg/mL | 65.99 | 0.098 µg/mL | 0.002 µg/mL | 0.391 µg/mL | 0.391 µg/mL | 0.391 µg/mL | 0.025 µg/mL | 0.195 µg/mL | 0.025 µg/mL | 0.098 µg/mL | 0.002 µg/mL | 0.098 µg/mL | 1.563 µg/mL | 0.013 µg/mL | 0.391 µg/mL | stability against hydrolysis by DHP-1 (in words) [6]: very stable; MIC [16]: 0.049 µg/mL; MIC [17]: 0.025 µg/mL; MIC [18]: 0.098 µg/mL; MIC [19]: 0.025 µg/mL; MIC [20]: 0.025 µg/mL; MIC [21]: 3.125 µg/mL; MIC [22]: 0.025 µg/mL; MIC [23]: 0.195 µg/mL; MIC [24]: 0.025 µg/mL; MIC [25]: 0.049 µg/mL; MIC [26]: 0.049 µg/mL
2 | C[C@@H](O)[C@H]1C(=O)N2C(C(=O)[O-])=C(SC3CN(Cc4ccc(F)cc4)C3)[C@H](C)[C@H]12.[K+] [Exam. 19, Potassium(1R,5S,6S)-2-[1-(4-fluorobenzyl)-azetidine-3-yl-thio]-6-[(1R)-1-hydroxylethyl]-1-methylcarbapen-2-em-3-carboxylate] | 0.195 µg/mL | 0.049 µg/mL | 0.391 µg/mL | 0.049 µg/mL | 0.195 µg/mL | 28.16 | 0.049 µg/mL | 0.002 µg/mL | 0.098 µg/mL | 0.098 µg/mL | 0.098 µg/mL | 0.025 µg/mL | 0.049 µg/mL | 0.025 µg/mL | 0.049 µg/mL | 0.002 µg/mL | 0.025 µg/mL | 1.563 µg/mL | 0.013 µg/mL | 0.049 µg/mL | MIC [16]: 0.049 µg/mL; MIC [17]: 0.025 µg/mL; MIC [18]: 0.195 µg/mL; MIC [19]: 0.025 µg/mL; MIC [20]: 0.049 µg/mL; MIC [21]: 3.125 µg/mL; MIC [22]: 0.049 µg/mL; MIC [23]: 0.391 µg/mL; MIC [24]: 0.025 µg/mL; MIC [25]: 0.049 µg/mL; MIC [26]: 3.125 µg/mL
3 | COc1ccc(CN2CC(SC3=C(C(=O)[O-])N4C(=O)[C@H]([C@@H](C)O)[C@H]4[C@H]3C)C2)cc1OC.[K+] [Exam. 17, Potassium(1R,5S,6S)-2-[1-(3,4-dimethoxybenzyl)-azetidine-3-yl-thio]-6-[(1R)-1-hydroxylethyl]-1-methylcarbapen-2-em-3-carboxylate] | 0.781 µg/mL | 0.098 µg/mL | 1.563 µg/mL | 0.195 µg/mL | 0.391 µg/mL | 27.45 | 0.391 µg/mL | 0.002 µg/mL | 0.781 µg/mL | 0.391 µg/mL | 0.781 µg/mL | 0.025 µg/mL | 0.391 µg/mL | 0.049 µg/mL | 0.098 µg/mL | 0.002 µg/mL | 0.098 µg/mL | 1.563 µg/mL | 0.013 µg/mL | 0.391 µg/mL | MIC [16]: 0.098 µg/mL; MIC [17]: 0.049 µg/mL; MIC [18]: 0.098 µg/mL; MIC [19]: 0.049 µg/mL; MIC [20]: 0.098 µg/mL; MIC [21]: 0.391 µg/mL; MIC [22]: 0.195 µg/mL; MIC [23]: 0.781 µg/mL; MIC [24]: 0.195 µg/mL; MIC [25]: 0.098 µg/mL; MIC [26]: 0.098 µg/mL
